In PubChem BioAssay AID2060329 (Molecular Pharmacology Branch, DTP, NCI, 2025):
Where “and” joins values, the source holds several entries; their conditions need not be identical. Equal entries are not always repeated.

Test system: MCF7 multi-cell spheroids with HUVEC/MSC, viability
Experiment: Anticancer human tumor MCF7 cell line growth inhibition [IpAb];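 further: spheroids exposed to agents for seven days before readout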
Settings: for viability, T/C: stronger effect = lower value
Outline: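 Multi-cell spheroids of 60% tumour cells, 25% HUVEC and 15% MSC in ultra-low-attachment U-bottom wells, treated with agents combined with ipatasertib or abemaciclib. Half-log ranges top out near clinical Cmax, or 10 microM when Cmax is unknown.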

[1] = curve of first compound, second compound 0.1 µM
[2] = curve of first compound, second compound 0.316 µM
[3] = curve of first compound, second compound 1 µM
[4] = curve of first compound, second compound 3.16 µM
[5] = curve of first compound, second compound 10 µM
[6] = second compound 0.1 µM, first compound 0.00949 µM
[7] = second compound 0.1 µM, first compound 0.03 µM
[8] = second compound 0.1 µM, first compound 0.0949 µM
[9] = second compound 0.1 µM, first compound 0.3 µM
[10] = second compound 0.316 µM, first compound 0.00949 µM
[11] = second compound 0.316 µM, first compound 0.03 µM
[12] = second compound 0.316 µM, first compound 0.0949 µM
[13] = second compound 0.316 µM, first compound 0.3 µM
[14] = second compound 1 µM, first compound 0.00949 µM
[15] = second compound 1 µM, first compound 0.03 µM
[16] = second compound 1 µM, first compound 0.0949 µM
[17] = second compound 1 µM, first compound 0.3 µM

With `CC1(C)CCC(CN2CCN(c3ccc(C(=O)NS(=O)(=O)c4ccc(NCC5CCOCC5)c([N+](=O)[O-])c4)c(Oc4cnc5[nH]ccc5c4)c3)CC2)=C(c2ccc(Cl)cc2)C1` + CC(C)NCC(C(=O)N1CCN(c2ncnc3c2C(C)CC3O)CC1)c1ccc(Cl)cc1 the IC50 [1] was 6000 nM, the IC50 [2] was 4520 nM and the IC50 [3] was 2510 nM. It also gave an IC50 [4] of 33.7 nM, an IC50 [5] of under 31.6 nM and a viability, T/C (second compound 0.1 µM, first compound 0.0316 µM) of 85%. For the same compound, the viability, T/C (second compound 0.1 µM, first compound 0.1 µM) was 83.3%, the viability, T/C (second compound 0.1 µM, first compound 0.316 µM) was 87.6% and the viability, T/C (second compound 0.1 µM, first compound 1 µM) was 84.2%. For the same compound, the viability, T/C (second compound 0.1 µM, first compound 3.16 µM) was 84.9%, the viability, T/C (second compound 0.1 µM, first compound 10 µM) was 22.2% and the viability, T/C (second compound 0.316 µM, first compound 0.0316 µM) was 72.4%. For the same compound, the viability, T/C (second compound 0.316 µM, first compound 0.1 µM) was 74.9%, the viability, T/C (second compound 0.316 µM, first compound 0.316 µM) was 69.5% and the viability, T/C (second compound 0.316 µM, first compound 1 µM) was 72.1%. It also gave a viability, T/C (second compound 0.316 µM, first compound 3.16 µM) of 67.3%, a viability, T/C (second compound 0.316 µM, first compound 10 µM) of 11.3% and a viability, T/C (second compound 1 µM, first compound 0.0316 µM) of 69.4%. The viability, T/C (second compound 1 µM, first compound 0.1 µM) was 64.9%, the viability, T/C (second compound 1 µM, first compound 0.316 µM) was 70.1% and the viability, T/C (second compound 1 µM, first compound 1 µM) was 56.1%. It also gave a viability, T/C (second compound 1 µM, first compound 3.16 µM) of 49.5%, a viability, T/C (second compound 1 µM, first compound 10 µM) of 10.9% and a viability, T/C (second compound 3.16 µM, first compound 0.0316 µM) of 47.9%. The viability, T/C (second compound 3.16 µM, first compound 0.1 µM) was 51.6%, the viability, T/C (second compound 3.16 µM, first compound 0.316 µM) was 51.3% and the viability, T/C (second compound 3.16 µM, first compound 1 µM) was 39.7%. The viability, T/C (second compound 3.16 µM, first compound 3.16 µM) was 34.1%, the viability, T/C (second compound 3.16 µM, first compound 10 µM) was 9.03% and the viability, T/C (second compound 10 µM, first compound 0.0316 µM) was 39.3%. It also gave a viability, T/C (second compound 10 µM, first compound 0.1 µM) of 34.5%, a viability, T/C (second compound 10 µM, first compound 0.316 µM) of 32.1% and a viability, T/C (second compound 10 µM, first compound 1 µM) of 27.8%. It also gave a viability, T/C (second compound 10 µM, first compound 3.16 µM) of 29.7% and a viability, T/C (second compound 10 µM, first compound 10 µM) of 5.76%.

For `CC(=O)c1c(C)c2cnc(Nc3ccc(N4CCNCC4)cn3)nc2n(C2CCCC2)c1=O` + CC(C)NCC(C(=O)N1CCN(c2ncnc3c2C(C)CC3O)CC1)c1ccc(Cl)cc1, the IC50 [1] was over 300 nM, the IC50 [2] was over 300 nM and the IC50 [3] was 275 nM. The IC50 [4] was 23.6 nM, the IC50 [5] was under 0.949 nM and the viability, T/C (second compound 0.1 µM, first compound 0.000949 µM) was 96.3%. It also gave a viability, T/C (second compound 0.1 µM, first compound 0.003 µM) of 100%, a viability, T/C [6] of 97.1% and a viability, T/C [7] of 90.7%. It also gave a viability, T/C [8] of 89.6%, a viability, T/C [9] of 86.8% and a viability, T/C (second compound 0.316 µM, first compound 0.000949 µM) of 80.9%. The viability, T/C (second compound 0.316 µM, first compound 0.003 µM) was 82.7%, the viability, T/C [10] was 87.9% and the viability, T/C [11] was 81.8%. It also gave a viability, T/C [12] of 77.1%, a viability, T/C [13] of 73.9% and a viability, T/C (second compound 1 µM, first compound 0.000949 µM) of 67.4%. It also gave a viability, T/C (second compound 1 µM, first compound 0.003 µM) of 71.4%, a viability, T/C [14] of 63.1% and a viability, T/C [15] of 62.4%. It also gave a viability, T/C [16] of 55.5%, a viability, T/C [17] of 49.9% and a viability, T/C (second compound 3.16 µM, first compound 0.000949 µM) of 45.1%. The viability, T/C (second compound 3.16 µM, first compound 0.003 µM) was 57.4%, the viability, T/C (second compound 3.16 µM, first compound 0.00949 µM) was 52.2% and the viability, T/C (second compound 3.16 µM, first compound 0.03 µM) was 48.2%. For the same compound, the viability, T/C (second compound 3.16 µM, first compound 0.0949 µM) was 46.9%, the viability, T/C (second compound 3.16 µM, first compound 0.3 µM) was 39.4% and the viability, T/C (second compound 10 µM, first compound 0.000949 µM) was 41.6%. The viability, T/C (second compound 10 µM, first compound 0.003 µM) was 42.7%, the viability, T/C (second compound 10 µM, first compound 0.00949 µM) was 36.9% and the viability, T/C (second compound 10 µM, first compound 0.03 µM) was 34%. It also gave a viability, T/C (second compound 10 µM, first compound 0.0949 µM) of 34.5% and a viability, T/C (second compound 10 µM, first compound 0.3 µM) of 23.2%.

`CCCS(=O)(=O)Nc1ccc(F)c(C(=O)c2c[nH]c3ncc(-c4ccc(Cl)cc4)cc23)c1F` was tested, and the viability, T/C (compound 0.0316 µM) was 102% and 98.6%, the viability, T/C (compound 0.1 µM) was 106% and 100% and the viability, T/C (compound 0.316 µM) was 102% and 96.2%. The viability, T/C (compound 1 µM) was 104% and 97%, the viability, T/C (compound 3.16 µM) was 99.4% and 93.1% and the viability, T/C (compound 10 µM) was 105% and 97.9%. For the same compound, the IC50 (curve of compound) was over 10000 nM.

With `Cn1cnc2c(F)c(Nc3ccc(Br)cc3Cl)c(C(=O)NOCCO)cc21` + CCN1CCN(Cc2ccc(Nc3ncc(F)c(-c4cc(F)c5nc(C)n(C(C)C)c5c4)n3)nc2)CC1 the IC50 (curve of first compound, second compound 0.01 µM) was over 3000 nM, the IC50 (curve of first compound, second compound 0.0316 µM) was over 3000 nM and the IC50 [1] was over 3000 nM. The IC50 [2] was over 3000 nM, the IC50 [3] was over 3000 nM and the viability, T/C (second compound 0.01 µM, first compound 0.00949 µM) was 104%. It also gave a viability, T/C (second compound 0.01 µM, first compound 0.03 µM) of 121%, a viability, T/C (second compound 0.01 µM, first compound 0.0949 µM) of 103% and a viability, T/C (second compound 0.01 µM, first compound 0.3 µM) of 113%. The viability, T/C (second compound 0.01 µM, first compound 0.949 µM) was 125%, the viability, T/C (second compound 0.01 µM, first compound 3 µM) was 100% and the viability, T/C (second compound 0.0316 µM, first compound 0.00949 µM) was 94.4%. It also gave a viability, T/C (second compound 0.0316 µM, first compound 0.03 µM) of 113%, a viability, T/C (second compound 0.0316 µM, first compound 0.0949 µM) of 109% and a viability, T/C (second compound 0.0316 µM, first compound 0.3 µM) of 116%. It also gave a viability, T/C (second compound 0.0316 µM, first compound 0.949 µM) of 119%, a viability, T/C (second compound 0.0316 µM, first compound 3 µM) of 99% and a viability, T/C [6] of 130%. The viability, T/C [7] was 120%, the viability, T/C [8] was 117% and the viability, T/C [9] was 127%. It also gave a viability, T/C (second compound 0.1 µM, first compound 0.949 µM) of 127%, a viability, T/C (second compound 0.1 µM, first compound 3 µM) of 113% and a viability, T/C [10] of 119%. The viability, T/C [11] was 132%, the viability, T/C [12] was 132% and the viability, T/C [13] was 126%. For the same compound, the viability, T/C (second compound 0.316 µM, first compound 0.949 µM) was 120%, the viability, T/C (second compound 0.316 µM, first compound 3 µM) was 108% and the viability, T/C [14] was 107%. For the same compound, the viability, T/C [15] was 110%, the viability, T/C [16] was 107% and the viability, T/C [17] was 95.5%. The viability, T/C (second compound 1 µM, first compound 0.949 µM) was 88.5% and the viability, T/C (second compound 1 µM, first compound 3 µM) was 88.5%.
